From patent US20250213519A1, “SYNERGY FOR INCREASING INSULIN SENSITIVITY” (Board of Supervisors of Louisiana State University and …, priority 2022, published 2025)
In brackets after ≈: the same amount, converted by molar mass. Entries after “also recorded” stand apart in the source; their conditions may differ. Where two headings read alike, the source gives them in different places.

Experiments:
[1] = cited from earlier work
[2] = mice; cited from earlier work
[3] = Myricetin toxicity in mice; format: in vivo; details: converted for human
GLP-1R = GLP-1R (Homo sapiens, UniProt P43220); details: cited from earlier work
[4] = single dose injection; cited from earlier work
[5] = oral administration, high fat diet; cited from earlier work
[6] = Estimated human Cmax of myricetin by conversion from rats; details: for Cmax: human, oral
rat islets = rat islets incubated in high glucose; cited from earlier work
human adipocytes [7] = assay: mRNA levels (qRT-PCR) in human adipocyte cultures treated for seven days; format: cell-based; details: for effects on gene expression of myricetin added to NRBC: added to nar ext + β-carotene, nanomolar myricetin
Excerpt: In adipocytes, CDK5 inhibitors reduce adipogenesis and increase genes for energy expenditure by altering PPARγ target gene selection. We measured the expression of the PPARα/γ direct target gene UCP1 after treating human adipocyte cultures with CDK5-inhibiting flavonols combined with naringenin for seven days.
Human adipose-derived stem cells from overweight and obese female donors were purchased from LaCell, LLC (New Orleans, Louisiana) or isolated from lipoaspirate waste donated post-surgery from women with obesity using methods as previously described (31). Cells were seeded, maintained until two days after becoming confluent, and differentiated into adipocytes in the presence of rosiglitazone and isobutylmethylxanthine for five days as previously described (25). […], dissolved in DMSO at 1000×, started 5 days after the differentiation period and lasted for seven days in adipocyte maintenance medium with heat inactivated serum, before RNA and protein were isolated from adipocyte cultures.
Quantitative reverse transcriptase and real-time PCR were conducted in one reaction with the gene-specific reverse PCR primer also priming the cDNA synthesis as previously described (25). Primer-probe sequences for UCP1, GLUT4, ATGL, adiponectin, PGC-1α and ribosomal RPL13A, used to adjust target gene values for total RNA in each sample, have been previously reported (25). […] Predesigned human primer and probe sets from Thermofisher Scientific are PM20D1 Hs00399438_m1; ANGPTL4 Hs00211522_m1; GDF11 Hs00195156_m1; S100B Hs00902901_m1.

[8] = 0.12% myricetin in high fat and sucrose diet; cited from earlier work
primary islets = details: up to 100 μm, 24 h; cited from earlier work
[9] = system: cytochrome P450 and drug efflux pumps like P-glycoprotein; details: enhances availability of co-administered tamoxifen and losartan in rats; cited from earlier work
CDK5 = CDK5 (Homo sapiens, UniProt Q00535); details: cited from earlier work
[10] = 25° C.; cited from earlier work
[11] = Pharmacokinetics of myricetin in rats; format: in vivo; details: plasma, po, from Table 1 (rat), converted
[12] = cited from earlier work; for solubility in an acidic solution: acetic acid buffered
human adipocytes [13] = assay: Protein levels by Western blotting in human adipocytes treated for seven days; format: cell-based; details: for PGC-1α protein, myricetin added to NRBC: 50 nM myricetin + NRBC, compared to NRBC
human adipocytes [14] = assay: mRNA levels (qRT-PCR) in human adipocyte cultures treated for seven days; format: cell-based; details: 50 nM myricetin alone, 7 days
[15] = rats orally administered 50 mg/kg and 100 mg/kg

Chain of CDK5 (Q00535 whole entry, species assumed): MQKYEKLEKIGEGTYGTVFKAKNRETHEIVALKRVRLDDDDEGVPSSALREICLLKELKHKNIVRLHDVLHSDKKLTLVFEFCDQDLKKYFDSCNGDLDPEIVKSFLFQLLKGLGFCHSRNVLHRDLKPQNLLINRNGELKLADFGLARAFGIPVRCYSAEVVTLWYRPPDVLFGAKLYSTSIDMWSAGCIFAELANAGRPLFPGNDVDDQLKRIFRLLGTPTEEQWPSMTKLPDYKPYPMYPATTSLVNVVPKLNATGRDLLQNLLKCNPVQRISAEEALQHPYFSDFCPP
Chain of CDK5 (Q15078 whole entry partner, species assumed): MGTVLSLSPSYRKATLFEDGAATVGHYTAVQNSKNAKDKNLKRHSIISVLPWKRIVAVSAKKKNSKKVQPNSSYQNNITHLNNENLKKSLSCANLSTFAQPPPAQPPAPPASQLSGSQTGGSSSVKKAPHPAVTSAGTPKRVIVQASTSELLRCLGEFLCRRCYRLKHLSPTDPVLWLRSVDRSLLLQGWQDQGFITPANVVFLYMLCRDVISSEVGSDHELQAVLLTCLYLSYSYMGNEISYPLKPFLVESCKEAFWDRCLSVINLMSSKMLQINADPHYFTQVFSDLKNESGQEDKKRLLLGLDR
Chain of GLP-1R (P43220 24-463, species assumed): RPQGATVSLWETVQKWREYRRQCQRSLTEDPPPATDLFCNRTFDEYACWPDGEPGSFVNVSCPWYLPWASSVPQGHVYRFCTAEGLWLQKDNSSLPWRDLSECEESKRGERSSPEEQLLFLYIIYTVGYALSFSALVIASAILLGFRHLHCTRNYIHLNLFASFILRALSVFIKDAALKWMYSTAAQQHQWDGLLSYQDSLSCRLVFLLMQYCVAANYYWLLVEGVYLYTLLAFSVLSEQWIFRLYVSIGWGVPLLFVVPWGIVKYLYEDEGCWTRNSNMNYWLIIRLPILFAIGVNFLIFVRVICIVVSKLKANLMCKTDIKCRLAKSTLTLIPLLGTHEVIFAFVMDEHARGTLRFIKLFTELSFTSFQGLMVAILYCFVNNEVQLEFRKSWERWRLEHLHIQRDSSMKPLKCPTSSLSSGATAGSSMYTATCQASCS

## O=c1c(O)c(-c2cc(O)c(O)c(O)c2)oc2cc(O)cc(O)c12 [myricetin]
[1]; rat, i.v., 0.5 mg/kg
  AUC0-∞: 1452.85 ± 170.30 ng·h/mL
  CL: 5.83 ± 0.83 mL/min/kg
  Cmax: 2232.16 ± 856.36 ng/mL
  Tmax: 0 (pre-dose) h
  Vd: 4.12 ± 1.52 L/kg
  t1/2: 6.99 ± 1.94 h
[1]; rat, p.o., 50 mg/kg
  AUC0-∞: 13,731.13 ± 5,574.58 ng · h/mL
  Bioavailability: 9.62%
  Cmax: 1488.75 ± 200.78 ng/mL
  Tmax: 6.4 ± 0.89 h
  t1/2: 2.78 ± 0.81 h
[1]; rat, p.o., 100 mg/kg
  AUC0-∞: 28,081.62 ± 10,982.45 ng · h/mL
  Bioavailability: 9.74%
  Cmax: 2611.76 ± 1019.58 ng/mL
  Tmax: 5.2 ± 3.03 h
  t1/2: 3.79 ± 0.75 h
[1]; [15]
  oral bioavailability: approximately 10%
  time to maximal concentration (Tmax): 6.5 h
[2]
  Tox: 1000 mg/kg/day
[3]
  Tox, human equivalent: 11 g
GLP-1R
  GLP-1R agonist activity: activity as a GLP-1R agonist at low micromolar concentrations
[4]
  blood glucose levels: maintained reduced blood glucose levels for eight hours
[5]
  fatty liver disease and circulating triglycerides: improved fatty liver disease and lowered circulating triglycerides
[6]; 564 mg dose, conversion from 50 mg/kg in rats
  Human Cmax: 39.4 µM
[6]; 10 mg
  Cmax: ~0.4 µM
[6]; 564 mg
  Cmax: ~2.5 µM
Rat islets
  insulin release: stimulated insulin release
Human adipocytes [7]; 2.5 μM flavonol + 8 μM naringenin extract, 7 days, vs naringenin alone (FIG. 1)
  UCP1 and GLUT4 mRNA, flavonol combined with naringenin: synergistically increased expression of UCP1 and GLUT4
Human adipocytes [7]; 25, 50 and 100 nM tested with NRBC
  most active myricetin concentration with naringenin extract and β-carotene: 50 nM
Human adipocytes [7]; added to 8 μM naringenin, 0.1 μM to 6 μM tested
  myricetin concentration with most potent upregulation of gene expression: 0.1 µM
Human adipocytes [7]
  effects on gene expression of myricetin added to NRBC: further upregulates gene expression; also recorded: almost doubles; also recorded: approximately doubles
Human adipocytes [7]; listed as Myricetin
  effects on gene expression of myricetin added to NRBC: enhances the effects on gene expression
Human adipocytes [7]; human fat cells, myricetin with naringenin
  increase in UCP-1 and GLUT-4 with naringenin: many fold greater increase in UCP-1 and GLUT-4
Human adipocytes [7]; low nanomolar concentrations, 7 days
  gene expression, myricetin alone: no effect at any concentration
Human adipocytes [7]; myricetin 5 nM + 8 μM naringenin ext
  effects on gene expression combined with naringenin: slightly reduced
Human adipocytes [7]; myricetin 50 nM and 25 nM + 8 μM naringenin ext
  effects on gene expression combined with naringenin: remained strong
Human adipocytes [7]; myricetin added to naringenin alone or to naringenin and beta carotene
  upregulation of thermogenic gene expression and adiponectin: approximately doubles
[8]
  adiposity, circulating glucose and insulin: reductions in adiposity, and circulating glucose and insulin
Primary islets
  viability of primary islets: no loss of viability
[9]
  inhibition of cytochrome P450 and efflux pumps: inhibits cytochrome P450 and drug efflux pumps like P-glycoprotein
CDK5
  CDK5 kinase activity inhibition EC50 (in words): low micromolar range
CDK5; read-out: CDK5 inhibition EC50
  EC50: 71 µM
[10]
  stability half-life: 23 h
[11]; first value (50 mg/kg p.o.)
  Cmax: 5 µM
[11]; second value (100 mg/kg p.o.)
  Cmax: 8.7 µM
[12]; pH 1
  solubility in an acidic solution: 777 µg/mL (≈ 2440 µM)
[12]; pH 2
  solubility in an acidic solution: 576 µg/mL (≈ 1810 µM)
[12]; pH 3
  solubility in an acidic solution: 150 µg/mL (≈ 471 µM)
[12]; aqueous
  aqueous solubility: 17 µg/mL (≈ 53.4 µM)
Human adipocytes [13]; 50 nM myricetin + 8 μM NR
  PGC-1α protein, myricetin added to NR: small increase
Human adipocytes [13]
  PGC-1α protein, myricetin added to NRBC: two-fold higher
Human adipocytes [13]; listed as Myricetin
  PGC-1α protein, myricetin added to NRBC: over two-fold
Human adipocytes [13]; 50 nM myricetin, 7 days
  PGC-1α protein levels: robustly upregulated
Human adipocytes [14]
  SIRT1 or SIRT3 mRNA levels: no effect
